Results as given in US20020049223A1, “Quinoline and naphthyridine carboxylic acid antibacterials” (priority 1999, published 2002).
Counter-ions that a name gives are not always drawn.

Tests used:
[1] = system: Enterococcus faecalis PIU 1967; test: Assay B: in vitro antibacterial activity, broth microdilution MIC (NCCLS); type: cell-based; settings: Table 2, Assay B, cation-adjusted Mueller Hinton broth, 35° C., 16 to 20 hr; code B = Enterococcus faecalis PIU 1967; unit assumed
Method in brief: (§1)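 NCCLS broth microdilution: cation-adjusted MH broth, ~5×10^5 CFU/mL, 35° C, 16–20 hr, visual endpoint of complete growth inhibition. Fastidious strains incubated 20–24 hr, S. pneumoniae with 3% lysed horse blood, H. influenzae with yeast extract, hematin and NAD.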

[2] = system: Haemophilus influenzae DILL AMP R; test: as above; type: cell-based; settings: Table 2, Assay B, Mueller Hinton broth with yeast extract, hematin and NAD, 20 to 24 hr; code E = Haemophilus influenzae DILL AMP R; unit assumed
Method in brief: as §1

Escherichia coli JUHL = test: as above; type: cell-based; settings: Table 2, Assay B, cation-adjusted Mueller Hinton broth, 35° C., 16 to 20 hr; code D = Escherichia coli JUHL; unit assumed
Method in brief: as §1

[3] = system: Streptococcus pneumoniae ATCC 6303; test: as above; type: cell-based; settings: Table 2, Assay B, Mueller Hinton broth with 3% lysed horse blood, 20 to 24 hr; code F = Streptococcus pneumoniae ATCC 6303; unit assumed
Method in brief: as §1

[4] = system: Staphylococcus aureus ATCC 6538P; test: as above; type: cell-based; settings: Table 2, Assay B, cation-adjusted Mueller Hinton broth, 35° C., 16 to 20 hr; code A = Staphylococcus aureus ATCC 6538P; unit assumed
Method in brief: as §1

| SMILES | melting point | Antibacterial Activity (MIC's), B [1] [µg/mL] | Antibacterial Activity (MIC's), E [2] [µg/mL] | Antibacterial Activity (MIC's), D (Escherichia coli JUHL) [µg/mL] | Antibacterial Activity (MIC's), F [3] [µg/mL] | Antibacterial Activity (MIC's), A [4] [µg/mL] |
| --- | --- | --- | --- | --- | --- | --- |
| Br.COc1c(-c2cc3c(s2)CCNC3C)ccc2c(=O)c(C(=O)O)cn(C3CC3)c12 (stereo not drawn) | 202 to 205 °C (dec.) |  |  |  |  |  |
| CC1NCCc2cc(-c3ccc4c(=O)c(C(=O)O)cn(C5CC5)c4n3)sc21.Cl (stereo not drawn) | 310 to 312 °C |  |  |  |  |  |
| Br.CC1(C)CNCc2cc(-c3ccc4c(=O)c(C(=O)O)cn(C5CC5)c4n3)sc21 | > 300 °C (dec.) |  |  |  |  |  |
| Br.CC1(C)CNCc2cc(-c3ccc4c(=O)c(C(=O)O)cn(C5CC5)c4c3)sc21 | > 300 °C (dec.) |  |  |  |  |  |
| Br.COc1c(-c2cc3c(s2)C(C)(C)CNC3)ccc2c(=O)c(C(=O)O)cn(C3CC3)c12 | 212 to 217 °C (dec.) |  |  |  |  |  |
| Br.CC1(C)CNCc2cc(-c3nc4c(cc3F)c(=O)c(C(=O)O)cn4C3CC3)sc21 | 258 to 262 °C (dec.) |  |  |  |  |  |
| CC1CNCc2sc(-c3ccc4c(=O)c(C(=O)O)cn(C5CC5)c4c3)cc21.Cl (stereo not drawn) | 295 to 298 °C |  |  |  |  |  |
| COc1c(-c2cc3c(s2)CNCC3C)ccc2c(=O)c(C(=O)O)cn(C3CC3)c12.Cl (stereo not drawn) | 254 to 259 °C |  |  |  |  |  |
| CC1CNCc2sc(-c3nc4c(cc3F)c(=O)c(C(=O)O)cn4C3CC3)cc21.Cl (stereo not drawn) | 288 to 290 °C |  |  |  |  |  |
| Cl.O=C(O)c1cn(C2CC2)c2nc(-c3cc4c(s3)CNCC4)ccc2c1=O | 298 to 300 °C |  |  |  |  |  |

Second part, the compound after the results:

| melting point | Antibacterial Activity (MIC's), B [1] [µg/mL] | Antibacterial Activity (MIC's), E [2] [µg/mL] | Antibacterial Activity (MIC's), D (Escherichia coli JUHL) [µg/mL] | Antibacterial Activity (MIC's), F [3] [µg/mL] | Antibacterial Activity (MIC's), A [4] [µg/mL] | SMILES |
| --- | --- | --- | --- | --- | --- | --- |
| 181 to 183 °C |  |  |  |  |  | COc1c(-c2cc3c(s2)CCC/C3=N\OCc2cccnc2)ccc2c(=O)c(C(=O)O)cn(C3CC3)c12 (as salt: hydrochloride) [Example 182, 1-cyclopropyl-8-methoxy-4-oxo-7-((4E)-4-((3-pyridinylmethoxy)imino)-4,5,6,7-tetrahydro-1-benzothien-2-yl)-1,4-dihydro-3-quinolinecarboxylic acid] |
|  | 0.06 | 0.008 | 0.03 | 0.03 | 0.015 | Cl.NC1CCCc2cc(-c3ccc4c(=O)c(C(=O)O)cn(C5CC5)c4c3Cl)sc21 (stereo not drawn) [Example 330, 7-(7-amino-4,5,6,7-tetrahydro-1-benzothien-2-yl)-8-chloro-1-cyclopropyl-4-oxo-1,4-dihydroquinoline-3-carboxylic acid hydrochloride] |
|  | 0.25 | 0.25 | 0.5 | 0.125 | 0.03 | CC1(C)CCc2cc(-c3cc4c(cc3F)c(=O)c(C(=O)O)cn4C3CC3)sc2C1O (stereo not drawn) [Example 342, 1-cyclopropyl-6-fluoro-7-(7-hydroxy-6,6-dimethyl-4,5,6,7-tetrahydro-1-benzothien-2-yl)-4-oxo-1,4-dihydroquinoline-3-carboxylic acid] |
|  | 0.03 | 0.015 | 0.125 | 0.008 | ≤ 0.004 | CNC1CCCc2sc(-c3c(F)c(N)c4c(=O)c(C(=O)O)cn(C5CC5)c4c3F)cc21.Cl (stereo not drawn) [Example 346, 5-amino-1-cyclopropyl-6,8-difluoro-7-(4-(methylamino)-4,5,6,7-tetrahydro-1-benzothien-2-yl)-4-oxo-1,4-dihydroquinoline-3-carboxylic acid hydrochloride] |
|  | 0.25 | 0.06 | 0.25 | 0.125 | 0.03 | CC1(C)CCc2cc(-c3ccc4c(=O)c(C(=O)O)cn(C5CC5)c4c3Cl)sc2C1N.Cl (stereo not drawn) [Example 347, 7-(7-amino-6,6-dimethyl-4,5,6,7-tetrahydro-1-benzothien-2-yl)-8-chloro-1-cyclopropyl-4-oxo-1,4-dihydroquinoline-3-carboxylic acid hydrochloride] |
|  | 0.125 | 0.06 | 0.25 | 0.03 | 0.015 | COc1c(-c2cc3c(s2)C(N)C(C)(C)CC3)c(F)cc2c(=O)c(C(=O)O)cn(C3CC3)c12.Cl (stereo not drawn) [Example 348, 7-(7-amino-6,6-dimethyl-4,5,6,7-tetrahydro-1-benzothien-2-yl)-1-cyclopropyl-6-fluoro-8-methoxy-4-oxo-1,4-dihydroquinoline-3-carboxylic acid hydrochloride] |
|  | 0.125 | ≤ 0.004 | 0.03 | 0.03 | 0.015 | Nc1cc(-c2cc3c(s2)C(N)CCC3)c(F)c2c1c(=O)c(C(=O)O)cn2C1CC1.O=C(O)C(F)(F)F (stereo not drawn) [Example 349, 5-amino-7-(7-amino-4,5,6,7-tetrahydro-1-benzothien-2-yl)-1-cyclopropyl-8-fluoro-4-oxo-1,4-dihydroquinoline-3-carboxylic acid trifluoroacetic acid salt] |
|  | 0.06 | 0.015 | 0.06 | 0.03 | 0.015 | CNC1CCCc2sc(-c3ccc4c(=O)c(C(=O)O)cn(C5CC5)c4c3Cl)cc21.Cl (stereo not drawn) [Example 361, 8-chloro-1-cyclopropyl-7-(4-(methylamino)-4,5,6,7-tetrahydro-1-benzothien-2-yl)-4-oxo-1,4-dihydroquinoline-3-carboxylic acid hydrochloride] |
|  | 0.125 | 0.03 | 0.06 | 0.03 | 0.015 | Cc1c(F)c(-c2cc3c(s2)CCCC3N)nc2c1c(=O)c(C(=O)O)cn2C1CC1.Cl (stereo not drawn) [Example 367, 7-(4-amino-4,5,6,7-tetrahydro-1-benzothien-2-yl)-1-cyclopropyl-6-fluoro-5-methyl-4-oxo-1,4-dihydro-1,8-naphthyridine-3-carboxylic acid hydrochloride] |
|  | 0.06 | ≤ 0.004 | 0.03 | 0.03 | 0.015 | Cc1c(-c2cc3c(s2)C(N)CCC3)c(F)cc2c(=O)c(C(=O)O)cn(C3CC3)c12.Cl (stereo not drawn) [Example 368, 7-(7-amino-4,5,6,7-tetrahydro-1-benzothien-2-yl)-1-cyclopropyl-6-fluoro-8-methyl-4-oxo-1,4-dihydroquinoline-3-carboxylic acid hydrochloride] |
|  | 0.03 | ≤ 0.004 | 0.06 | 0.03 | ≤ 0.004 | Cc1c(-c2cc3c(s2)C(O)CCC3)c(F)cc2c(=O)c(C(=O)O)cn(C3CC3)c12 (stereo not drawn) [Example 369, 1-cyclopropyl-6-fluoro-7-(7-hydroxy-4,5,6,7-tetrahydro-1-benzothien-2-yl)-8-methyl-4-oxo-1,4-dihydroquinoline-3-carboxylic acid] |
|  | 0.03 | 0.03 | 0.06 | ≤ 0.004 | ≤ 0.004 | Cc1c(F)c(-c2cc3c(s2)C(N)CCC3)nc2c1c(=O)c(C(=O)O)cn2C1CC1.Cl (stereo not drawn) [Example 371, 7-(7-amino-4,5,6,7-tetrahydro-1-benzothien-2-yl)-1-cyclopropyl-6-fluoro-5-methyl-4-oxo-1,4-dihydro-1,8-naphthyridine-3-carboxylic acid hydrochloride] |
